According to paper PMC11311998, “AR71, Histamine H3 Receptor Ligand—In Vitro and In Vivo Evaluation (Anti-Inflammatory Activity, Metabolic Stability, Toxicity, and Analgesic Action)” (International Journal of Molecular Sciences, 2024):
Where two headings read alike, the source gives them in different places.

Columns and labels:
[1] = test system: SH-SY5Y cells; assay: viability of neuroblastoma cells (MTS assay); format: cell-based, human
Procedure: The toxicity of AR71 in neuroblastoma cells was evaluated with the 3-(4,5-dimethylthiazol-2-yl)-5-(3-carboxymethoxyphenyl)-2-(4-sulfophenyl)-2H-tetrazolium (MTS) assay. The cells were cultured with AR71 at various concentrations ranging from nanomolar to micromolar for 24 h.
SH-SY5Y cells (the human neuroblastoma cell line) were purchased from the American Type Culture Collection (ATCC® no. CRL-2266™; Manassas, VA, USA). The cells were grown in a complete culture medium containing DMEM/F-12 medium (Gibco no. A41920-01) supplemented with 10% foetal bovine serum (FBS, Gibco no. 10500-064), non-essential amino acids (Biowest, Nuaillé, France), and antibiotics (Life Technologies) in a humidified incubator containing 95% air and 5% CO2 at 37 °C. Experiments were performed with SH-SY5Y cells from passage (15 up to 25—W.W.).
Neurotoxicity evaluation was performed with the SH-SY5Y cell line. The cells were seeded (5 × 10^3 cells/100 μL/well) in transparent 96-well plates (Corning Falcon, no. 353072, Merck KGaA, Darmstadt, Germany), in a complete culture medium and cultured overnight. The next day, the medium was removed and replaced with a fresh one containing 0.1% DMSO (vehicle control, Veh) or increasing concentration of the AR71 compound (the concentrations studied covered the range of nanomolar and micromolar concentrations). Treatment with the compounds was performed for 24 h. At the end of the incubation time, the cells were examined under an inverted microscope to rule out possible precipitation of the compound in the culture medium. Cell viability was examined using an MTS-based CellTiter96® AQueous One Solution Cell Proliferation Assay (Promega, Madison, WI, USA) following the manufacturer’s protocol. Briefly, 20 μL of MTS solution was pipetted directly into each well containing 100 μL of culture medium with or without cells (blank) and incubated at 37 °C for 1 h. The absorbance was measured at 490 nm using the Tecan Spark multimode plate reader (Tecan, Männedorf, Switzerland). A reference wavelength of 630 nm was used to subtract the background. The viability of individual samples was calculated relative to the vehicle-treated cells (0.1% DMSO). The results are presented as means with SEMs of two independent experiments, each comprising four replicates per treatment group. Data from the MTS assay were used to determine the IC50 value. It was calculated by fitting a nonlinear regression to a sigmoidal dose–response curve in GraphPad Prism version 8.0.1 (GraphPad Software, Inc., San Diego, CA, USA).

[2] = test system: human peripheral blood mononuclear cells (PBMCs); assay: PBMC viability (resazurin reduction assay); format: cell-based; settings: for IC50: Homo sapiens, PBMC, read-out: IC50 PBM Cells
Procedure: PBMCs were isolated from a leucocyte-buffy coat collected from the blood of healthy non-smoking donors from the Blood Bank in Lodz, Poland. They included lymphocytes, monocytes, and other white blood cells with a round nucleus. A portion of the leucocyte-buffy coat was diluted in 1% phosphate buffer saline (PBS). Then, it was centrifuged in a density gradient of Lymphosep (Cytogen, Zgierz, Poland) at 200× g for 20 min at room temperature. Next, the cells were collected and washed thrice in 1% PBS. The supernatant was poured off, and the pellet of the cells was resuspended in RPMI 1640 medium (Lonza, Basel, Switzerland). The study protocol was approved by the Committee for Research on Human Subjects of the University of Lodz, Poland (17/KBBN-UŁ/III/2019).
The resazurin reduction assay was performed similarly to that previously described by O’Brien et al.. Resazurin salt powder was dissolved in sterile PBS. The cells were seeded on 96-well plates in 5 × 10^4 for PBMCs per well. AR71 was added to the wells to achieve final concentrations of 0.78, 1.56, 3.125, 6.25, 12.5, 25, 50, and 100 µM. In the next step, the plates were incubated at 37 °C in 5% CO2 for 2 h, 24 h, 48 h, and 72 h. Then, 10 µL of resazurin salt was added to each well, and the plates were incubated again at 37 °C in 5% CO2 for 2 h. Next, fluorescence was measured with microplate reader BioTek Synergy HT (Agilent Technologies, Inc., Santa Clara, CA, USA) using an excitation wavelength of 530/25 nm and an emission wavelength of 590/35 nm.
The viability of PBMCs was estimated after 2, 24, 48, and 72 h of incubation with AR71. The viability of individual samples was calculated relative to the negative control (NC, untreated cells), which was taken as 100%. The positive control was PBMCs incubated with 0.1% DMSO (vehicle, Veh). The results represented the means with SEMs of six independent experiments and were expressed as a percentage of untreated control cells. The values were plotted against all used concentrations of AR71 to calculate the viability inhibition concentration at 50% (IC50) using GraphPad Prism 6.07 (GraphPad Software, Inc., San Diego, CA, USA).

COc1cc(/C=C/C(=O)c2ccc(OCCCN3CCCCC3)cc2)cc(OC)c1OC [AR71, (E)-3-(3,4,5-trimethoxyphenyl)-1-(4-(3-(piperidin-1-yl)propoxy)phenyl)prop-2-en-1-one]
loss in neuroblastoma viability vs control cells ([1]; 50 μM, 24 h): 73%
concentration from which cell metabolic activity decreased significantly (p < 0.001) ([1]; 24 h): ≥ 4.17 µM
IC50 ([1]; Homo sapiens, SH-SY5Y, 24 h incubation): 24.9 µM
effect on cell viability ([1]; concentrations up to 0.72 μM, 24 h): did not affect cell viability
decrease in the number of PBMCs ([2]; 100 µM, regardless of incubation time (2-72 h)): 80–98%
cytotoxic effect on PBMCs ([2]; 0.78, 1.56 and 3.125 µM, 2 h): did not cause a cytotoxic effect
decrease in the number of PBMCs ([2]; 6.25–50 µM, 2 h): ≤ 20%
IC50 ([2]; 2 h incubation): 71 µM
IC50 ([2]; 24 h incubation): 21 µM
IC50 ([2]; 48 h incubation): 7.48 µM
IC50 ([2]; 72 h incubation): 4.53 µM
